Read-outs that look alike come from different tables or passages of the source. Some results are limits rather than exact numbers.

What is called IC50 is the concentration at which inhibition is half-maximal.

What all share (format): cell-based
One assay has as its system MV-4-11 cells. In words: Antiproliferative activity against MV-4-11 cells (CellTiter-Glo, 72 h). The settings on record: Homo sapiens, read-out: Antiproliferative activity IC50. The method, boiled down:
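MV-4-11 cells in RPMI + 10% FBS plated at 5,000 cells/well and pre-incubated 24 h at 37 °C, 5% CO2. Compounds were then added (final DMSO 0.2%) and cells incubated 72 h. Viability was read by CellTiter-Glo luminescence after 30 min equilibration at room temperature.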
(Cellular ATP, detected with luciferase, serves as a proxy for viable cell number.)

For the next assay, the system named is NCI-H929 cells. As to the kind of experiment: Antiproliferative activity against various tumor cells: NCI-H929. The following applies: Homo sapiens; NCI-H929 cells, 72 h; read-out: Antiproliferative activity IC50 NCI-H929. On the procedure:
(§1) U937, NCI-H929, AML-2, and MOLM-13 cells in the logarithmic growth phase were diluted in media RPMI+10% FBS, RPMI+10% FBS, MEMα+20% FBS, RPMI+20% FBS, respectively, and plated at 4,000 cells/well in 96-well whole black plates (WHB) with 50 μL/well. After plating, the plates were incubated in an incubator at 5% CO2 and 37° C. for 24 h before the compounds were added. The compounds were prepared into a 10 mM stock solution in DMSO and diluted in a culture medium to the desired concentrations (a final DMSO concentration of 0.2%). […] The plates were incubated at 5% CO2 and 37° C. for 72 h. After the incubation was complete, the plates were equilibrated at room temperature for 30 min. CellTiter-Glo® Reagent (Promega G7573) was added at 100 μL/well. The plates were shaken for 12 min on a microplate shaker. The luminescence value was measured at room temperature by the GloMax navigator (Promega GM2010).

The subject of the next assay is U937 cells. As to the kind of experiment: Antiproliferative activity against various tumor cells: U937. The following applies: Homo sapiens, U-937; U937 cells, 72 h; read-out: Antiproliferative activity IC50 U937. On the procedure: as §1
Another assay relates to MOLM-13 cells. As to the kind of experiment: Antiproliferative activity against various tumor cells: MOLM-13. The settings on record: Homo sapiens; MOLM-13 cells, 72 h; read-out: Antiproliferative activity IC50 MOLM-13. On the procedure:
as §1

In a further assay the test system is AML-2 cells. In words: Antiproliferative activity against various tumor cells: AML-2. The following applies: AML-2 cells, 72 h; read-out: Antiproliferative activity IC50 AML-2. As for the experimental part:
as §1

In a further assay the target is T1, GSPT1 protein (Homo sapiens, UniProt P15170).
T1 construct: The whole cell lysate was prepared using a RIPA lysis buffer; endogenous in cells; host or cells: NB-4 cells
T1 sequence (P15170 whole entry): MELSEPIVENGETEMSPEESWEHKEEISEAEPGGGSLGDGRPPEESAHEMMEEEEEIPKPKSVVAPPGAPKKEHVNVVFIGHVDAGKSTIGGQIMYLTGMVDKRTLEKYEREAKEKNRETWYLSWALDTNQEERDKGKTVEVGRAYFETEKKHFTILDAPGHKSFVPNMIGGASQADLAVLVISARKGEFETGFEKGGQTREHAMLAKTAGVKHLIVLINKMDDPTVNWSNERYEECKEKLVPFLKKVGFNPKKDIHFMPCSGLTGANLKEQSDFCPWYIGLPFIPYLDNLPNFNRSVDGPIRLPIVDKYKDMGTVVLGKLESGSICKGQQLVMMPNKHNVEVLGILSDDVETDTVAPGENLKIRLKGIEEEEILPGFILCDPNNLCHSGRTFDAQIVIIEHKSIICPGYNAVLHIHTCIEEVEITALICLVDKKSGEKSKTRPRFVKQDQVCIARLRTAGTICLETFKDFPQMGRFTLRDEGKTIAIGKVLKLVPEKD
In words: Degradation of GSPT1 protein in NB-4 cells (Western blot). The following applies: read-out: GSPT1 degradation. Summed up:
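GSPT1 levels were read by Western blot (4-20% SDS-PAGE, PVDF, overnight primary antibody at 4 °C) on lysates of NB-4 cells.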
(In western blotting, separated proteins are transferred to a membrane and probed.)

As to `O=C(/C=C/c1ccc(Cl)cc1)NCc1ccc2c(c1F)CN(C1CCC(=O)NC1=O)C2=O` (stereo not shown) [FDAB-142], the IC50 with MV-4-11 cells (MV4-11, MV-4-11 cells, 72 h) was less than 1 nM; in the assay on NCI-H929 cells, less than 1 nM; with U937 cells, 1 to 10 nM; in the assay on MOLM-13 cells, less than 1 nM; in the assay on AML-2 cells, 1 to 10 nM. Further, the inhibition at 1 µM at GSPT1 protein (NB-4 cells, compound 1 μM, 6 h) was greater than 80%.
As for `O=C(C#Cc1ccccc1)NCc1ccc2c(c1F)CN(C1CCC(=O)NC1=O)C2=O` (stereo not shown) [FDAB-144], the IC50 was less than 1 nM in the assay with MV-4-11 cells (MV4-11, MV-4-11 cells, 72 h); less than 1 nM with NCI-H929 cells; 1 to 10 nM with U937 cells; less than 1 nM in the assay with MOLM-13 cells; 1 to 10 nM in the assay on AML-2 cells. The inhibition at 1 µM at GSPT1 protein (NB-4 cells, compound 1 μM, 6 h) was greater than 80%.
As for `Cc1cc(C(=O)NCc2ccc3c(c2F)CN(C2CCC(=O)NC2=O)C3=O)cc(C)c1C` (stereo not shown) [FDAB-92], the half-inhibitory concentration (IC50) with MV-4-11 cells (MV4-11, MV-4-11 cells, 72 h) lay within 1 to 10 nM; with NCI-H929 cells, 10 to 100 nM; in the assay with U937 cells, 1 to 10 nM; in the assay on MOLM-13 cells, 1 to 10 nM; with AML-2 cells, 1 to 10 nM. Also, the inhibition at 1 µM on GSPT1 protein (NB-4 cells, compound 1 μM, 6 h) is greater than 80%.
In the case of `O=C(CCc1cccc(F)c1)NCc1ccc2c(c1F)CN(C1CCC(=O)NC1=O)C2=O` (stereo not shown) [FDAB-137], the IC50 lay in the range of 1 to 10 nM with MV-4-11 cells (MV4-11, MV-4-11 cells, 72 h); 1 to 10 nM with NCI-H929 cells; 1 to 10 nM in the assay on U937 cells; 1 to 10 nM with MOLM-13 cells; 1 to 10 nM in the assay with AML-2 cells. In addition, the inhibition at 1 µM on GSPT1 protein (NB-4 cells, compound 1 μM, 6 h) was greater than 80%.
For the compound `CC(C)(C)c1ccc(C(=O)NCc2ccc3c(c2F)CN(C2CCC(=O)NC2=O)C3=O)cc1` (stereo not shown) [FDAB-94], the IC50 in the assay on MV-4-11 cells (MV4-11, MV-4-11 cells, 72 h) was less than 1 nM; with NCI-H929 cells it was 1 to 10 nM; with U937 cells, less than 1 nM; in the assay on MOLM-13 cells, less than 1 nM; in the assay with AML-2 cells it was less than 1 nM. The inhibition at 1 µM on GSPT1 protein (NB-4 cells, compound 1 μM, 6 h) is greater than 80%.
For `O=C1CCC(N2Cc3c(ccc(CNC(=O)c4cc5cc(Cl)ccc5o4)c3Cl)C2=O)C(=O)N1` (stereo not shown) [FDAB-68], the IC50 in the assay on MV-4-11 cells (MV4-11, MV-4-11 cells, 72 h) fell in the range of 1 to 10 nM; with NCI-H929 cells it was 1 to 10 nM; in the assay on U937 cells it was 10 to 100 nM; with MOLM-13 cells, 10 to 100 nM; in the assay on AML-2 cells, 10 to 100 nM. The inhibition at 1 µM on GSPT1 protein (NB-4 cells, compound 1 μM, 6 h) lay within 50 to 80%.
Take `O=C1CCC(N2Cc3c(ccc(CNC(=O)c4ccc(C(=O)c5ccccc5)cc4)c3F)C2=O)C(=O)N1` (stereo not shown) [FDAB-100]: the half-inhibitory concentration (IC50) in the assay on MV-4-11 cells (MV4-11, MV-4-11 cells, 72 h) is less than 1 nM; in the assay with NCI-H929 cells, less than 1 nM; with U937 cells it was less than 1 nM; in the assay with MOLM-13 cells, less than 1 nM; in the assay on AML-2 cells it was 1 to 10 nM. Also, the inhibition at 1 µM at GSPT1 protein (NB-4 cells, compound 1 μM, 6 h) is greater than 80%.
For the compound `O=C1CCC(N2Cc3c(ccc(CNC(=O)C(F)(F)c4ccc(Cl)cc4)c3F)C2=O)C(=O)N1` (stereo not shown) [FDAB-124], the IC50 fell in the range of 10 to 100 nM with MV-4-11 cells (MV4-11, MV-4-11 cells, 72 h); 100 to 1000 nM in the assay with NCI-H929 cells; 10 to 100 nM in the assay with U937 cells; 10 to 100 nM in the assay on MOLM-13 cells; 10 to 100 nM in the assay with AML-2 cells. Besides, the inhibition at 1 µM on GSPT1 protein (NB-4 cells, compound 1 μM, 6 h) is greater than 80%.
As to `O=C1CCC(N2Cc3c(ccc(CNC(=O)C4CC5(CCC5)C4)c3F)C2=O)C(=O)N1` (stereo not shown) [FDAB-156], the IC50 is 1 to 10 nM in the assay on MV-4-11 cells (MV4-11, MV-4-11 cells, 72 h); 1 to 10 nM in the assay with NCI-H929 cells; 1 to 10 nM in the assay on U937 cells; 10 to 100 nM with MOLM-13 cells; 10 to 100 nM in the assay on AML-2 cells. Also, at GSPT1 protein (NB-4 cells, compound 1 μM, 6 h), the inhibition at 1 µM is greater than 80%.
Turning to `O=C(C#Cc1ccc(Cl)cc1)NCc1ccc2c(c1F)CN(C1CCC(=O)NC1=O)C2=O` (stereo not shown) [FDAB-145], the IC50 in the assay with MV-4-11 cells (MV4-11, MV-4-11 cells, 72 h) was less than 1 nM. Also, the inhibition at 1 µM on GSPT1 protein (NB-4 cells, compound 1 μM, 6 h) is greater than 80%.
As to `N#Cc1cc(C(=O)NCc2cc3c(cc2F)C(=O)N(C2CCC(=O)NC2=O)C3)ccc1Cl` (stereo not shown) [FDAB-54], the IC50 in the assay on MV-4-11 cells (MV4-11, MV-4-11 cells, 72 h) lay in the range of 10 to 100 nM. Moreover, the inhibition at 1 µM on GSPT1 protein (NB-4 cells, compound 1 μM, 6 h) is 50 to 80%.
The matching figures for `O=C1CCC(N2Cc3cc(CNC(=O)c4ccc5ccccc5n4)c(F)cc3C2=O)C(=O)N1` (stereo not shown) [FDAB-60]: 10 to 100 nM and greater than 80%.
Take `O=C(Cc1c[nH]c2ccc(F)cc12)NCc1ccc2c(c1F)CN(C1CCC(=O)NC1=O)C2=O` (stereo not shown) [FDAB-134]: in the assay with MV-4-11 cells (MV4-11, MV-4-11 cells, 72 h), the 50% inhibitory concentration (IC50) was 1 to 10 nM. Moreover, the inhibition at 1 µM at GSPT1 protein (NB-4 cells, compound 1 μM, 6 h) lay in the range of 50 to 80%.
The like results for `N#Cc1ccc(NCC(=O)NCc2ccc3c(c2F)CN(C2CCC(=O)NC2=O)C3=O)cc1` (stereo not shown) [FDAB-149] were, in that order, greater than 1000 nM and less than 25%.
For `Cc1ccc(C(=O)NCc2ccc3c(c2F)CN(C2CCC(=O)N(COC(=O)OC(C)C)C2=O)C3=O)c(F)c1` (stereo not shown) [FDAB-130], the IC50 in the assay on MV-4-11 cells (MV4-11, 72 h) is 10 to 100 nM. For the same compound, the inhibition at 1 µM at GSPT1 protein (NB-4, 6 h) was in the range of 50 to 80%.
`O=C1CCC(N2Cc3cc(CNC(=O)c4ccc(O)cc4)c(F)cc3C2=O)C(=O)N1` (stereo not shown) [FDAB-28]: the IC50 in the assay with MV-4-11 cells (MV4-11, MV-4-11 cells, 72 h) is greater than 1000 nM. Moreover, the inhibition at 1 µM at GSPT1 protein (NB-4 cells, compound 1 μM, 6 h) was less than 25%.
The matching figures for `CN(C)c1ccc(C(=O)NCc2ccc3c(c2F)CN(C2CCC(=O)NC2=O)C3=O)cc1` (stereo not shown) [FDAB-86]: 1 to 10 nM and greater than 80%.

Source of the values: US20250282746A1, “HALOGEN-SUBSTITUTED ISOINDOLINE COMPOUND AND USE THEREOF” (CHENGDU FENDI PHARMACEUTICAL CO., LTD., priority 2022, published 2025).
